The values below come from patent US11319303B2 (WIGEN BIOMEDICINE TECHNOLOGY (SHANGHAI) CO., LTD., priority 2017, dated 2022).

pIC50: −log10 of the molar value. Structures can show the parent of a compound that is named as a salt. Some results are limits rather than exact numbers.

One experiment concerns the target LC3B (Homo sapiens, UniProt Q9GZQ8). The experiment is described as follows: Fluorescence Polarization (FP) Assay: displacement of FITC-labeled peptide from GST-LC3B. Format: binding.
Conditions: not given
Here is the method: The compounds of the present invention for regulating the autophagy-related protein LC3B were tested by Fluorescence Polarization (FP) Assay.
Fluorescence Polarization (FP) Assay Test
Background: Polarisation of emitted light reports the rotation of a fluorescent probe.
One may read the pIC50 as −log10 of the IC50, conventionally taken in molar units. As for `COc1ccc(C2CC(=O)C(=CNCCN(C)C)C(=O)C2)c(F)c1F` (stereo not shown) [Compound 403, 5-(2,3-difluoro-4-methoxyphenyl)-2-(((2-(dimethylamino)ethyl)amino)methylene) cyclohexane-1,3-dione], the negative logarithm of the IC50 (pIC50) is > 5.52. Molecule `O=C1CC(c2ccccc2)CC(=O)C1=CNC1CCSC1=O` (stereo not shown) [Compound 137, 2-(((2-oxotetrahydro-thiophen-3-yl)amino)methylene)-5-phenylcyclohexane-1,3-dione] showed a negative-log IC50 (pIC50) of 4.82 to 5.52.

Staying with this experiment, now noted: Fluorescence Polarization assay; GST-LC3B 180 nM, FITC-labeled peptide 18 nM, 25° C.; read-out: IC50.
`O=C1CC(c2ccsc2)CC(=O)C1=CO` (stereo not shown) [Compound 456, 2-(hydroxy-methylene)-5-(3-thiophen)cyclo-hexane-1,3-dione lithium salt]: the pIC50 is 4.82 to 5.52. In the case of `O=C1CC(c2cccc3[nH]cc(Cl)c23)CC(=O)C1=CNCCN1CCN(CCO)CC1` (stereo not shown) [Compound 322, 5-(3-chloro-1H-indol-4-yl)-2-(((2-(4-(2-hydroxyethyl)piperazin-1-yl)ethyl)amino)methylene) cyclohexane-1,3-dione], the pIC50 is > 5.52. Still for that read-out and setting: the same measure for `CCOc1ncnc2c1ncn2-c1ccc(C2CC(=O)C(=CNCCN3CCN(CCO)CC3)C(=O)C2)cc1` (stereo not shown) [Compound 76, 5-(4-(6-ethoxy-9H-purin-9-yl)phenyl)-2-(((2-(4-(2-hydroxyethyl)piperazin-1-yl)ethyl)amino)methylene) cyclohexane-1,3-dione]: 4.00 to 4.82. In the case of `CN(C)CCNC=C1C(=O)CC(c2c(Cl)cccc2C(F)(F)F)CC1=O` (stereo not shown) [Compound 358, 5-(2-chloro-6-(trifluoromethyl)phenyl)-2-(((2-(dimethylamino)ethyl)amino)methylene) cyclohexane-1,3-dione], the pIC50 was > 5.52. The same measure, in the same setting: the same measure for `O=C1C=C(c2ccccc2)OC(=O)C1=CO` [Compound 448, 3-(hydroxymethylene)-6-phenyl-2H-pyran-2,4(3H)-dione]: 4.82 to 5.52; for `O=C1CC(c2ccccc2F)CC(=O)C1=CO` (stereo not shown) [Compound 416, 2-(hydroxymethylene)-5-(2-fluorophenyl)cyclo-hexane-1,3-dione]: > 5.52. Regarding `COc1cc(C2CC2)c(C2CC(=O)C(=CNCCN3CCN(CCO)CC3)C(=O)C2)cc1OC` (stereo not shown) [Compound 23, 5-(2-cyclopropyl-4,5-dimethoxyphenyl)-2-(((2-(4-(2-hydroxyethyl)piperazin-1-yl)ethyl)amino)methylene) cyclohexane-1,3-dione], the pIC50 was 4.82 to 5.52. Same read-out and setting: the result for `O=C1Nc2ccc(Cl)cc2C(=O)/C1=C/NCCN1CCN(CCO)CC1` [Compound 192, 6-chloro-3-(((2-(4-(2-hydroxyethyl)piperazin-1-yl)ethyl)amino)methylene) quinoline-2,4 (1H,3H)-dione] reads 4.82 to 5.52; that for `CN(C)C=C1C(=O)CC(c2cn(C)c3ccccc23)CC1=O` (stereo not shown) [Compound 294, 2-((dimethylamino)methylene)-5-(1-methyl-1H-indol-3-yl)cyclohexane-1,3-dione], > 5.52. Same read-out and setting: the result for `CN(C)CCNC=C1C(=O)CC(c2cc(C(F)(F)F)ccc2Br)CC1=O` (stereo not shown) [Compound 362, 5-(2-bromo-5-(trifluoromethyl)phenyl)-2-(((2-(dimethylamino)ethyl)amino)methylene) cyclohexane-1,3-dione] reads > 5.52. Same read-out and setting: the same measure for `COCCOc1ccccc1C1CC(=O)C(=CNCCN2CCN(CCO)CC2)C(=O)C1` (stereo not shown) [Compound 42, 2-(((2-(4-(2-hydroxyethyl)piperazin-1-yl)ethyl)amino)methylene)-5-(2-(2-methoxyethoxy)phenyl) cyclohexane-1,3-dione]: 4.82 to 5.52; for `CN(C)CCNC=C1C(=O)CC(C(=O)Nc2ccccc2)CC1=O` (stereo not shown) [Compound 343, 4-(((2-(dimethylamino)ethyl)amino)methylene)-3,5-dioxo-N-phenylcyclohexane-1-carboxamide]: 4.82 to 5.52.

Take `CN(C)CCNC=C1C(=O)CC(C(=O)Nc2ccc(Cl)cc2)CC1=O` (stereo not shown) [Compound 363, N-(4-chlorophenyl)-4-(((2-(dimethylamino)ethyl)amino)methylene)-3,5-dioxocyclohexane-1-carboxamide]: the pIC50 was 4.82 to 5.52. The same measure, in the same setting: the same measure for `O=C1CC(c2cccs2)CC(=O)C1=CNCCN1CCN(CCO)CC1` (stereo not shown) [Compound 37, 2-(((2-(4-(2-hydroxyethyl)piperazin-1-yl)ethyl)amino)methylene)-5-(thiophen-2-yl) cyclohexane-1,3-dione]: > 5.52; for `CN(C)CCNC=C1C(=O)CC(c2cc(C(F)(F)F)ccc2Cl)CC1=O` (stereo not shown) [Compound 381, 5-(2-chloro-5-(trifluoromethyl)phenyl)-2-(((2-(dimethylamino)ethyl)amino)methylene) cyclohexane-1,3-dione]: > 5.52. On to `O=C(CO)C1C(=O)CC(c2ccccc2)CC1=O` (stereo not shown) [Compound 112, 2-(hydroacetyl)-5-pheyl-cyclohexane-1,3-dione], for which the negative-log IC50 (pIC50) is 4.00 to 4.82. On to `O=C1CC(c2cnc(N3CCOCC3)nc2)CC(=O)C1=CNCCN1CCN(CCO)CC1` (stereo not shown) [Compound 91, 2-(((2-(4-(2-hydroxyethyl)piperazin-1-yl)ethyl)amino)methylene)-5-(2-morpholino-pyrimidin-5-yl)cyclohexane-1,3-dione], for which the negative-log IC50 (pIC50) is 4.00 to 4.82.

`CC1(C)C(=O)C(=CNCCN2CCN(CCO)CC2)C(=O)CC1c1ccccc1` (stereo not shown) [Compound 324, 2-(((2-(4-(2-hydroxyethyl)piperazin-1-yl)ethyl)amino)methylene)-4,4-dimethyl-5-phenylcyclohexane-1,3-dione]: the pIC50 is 4.82 to 5.52. The same measure, in the same setting: the result for `Cc1cccc(Cc2ccccc2C2CC(=O)C(=CN(C)C)C(=O)C2)c1` (stereo not shown) [Compound 290, 2-((dimethylamino)methylene)-5-(2-(3-methylbenzyl)phenyl) cyclohexane-1,3-dione] reads 4.82 to 5.52; that for `CCCNC(=O)N1CCN(CCNC=C2C(=O)CC(c3ccc(C)cc3)CC2=O)CC1` (stereo not shown) [Compound 228, 4-(2-(((2,6-dioxo-4-(p-tolyl)cyclohexylidene)methyl)amino)ethyl)-N-propylpiperazine-1-carboxamide], > 5.52. On to `O=C1CC(c2cccc(Cl)c2Cl)CC(=O)C1=CN1CCCCC1` (stereo not shown) [Compound 408, 5-(2,3-dichlorophenyl)-2-(piperidine-1-ylmethylene) cyclohexane-1,3-dione], for which the pIC50 is 4.82 to 5.52. Same read-out and setting: the result for `O=C1CC(c2cccc3[nH]ccc23)CC(=O)C1=CO` (stereo not shown) [Compound 459, 2-(hydroxy-methylene)-5-(1H-indol-4-yl)cyclo-hexane-1,3-dione lithium salt] reads > 5.52; that for `O=C1CC(c2ccccc2)CC(=O)C1=CNCCN1CCNCC1` (stereo not shown) [Compound 236, 5-phenyl-2-(((2-(piperazin-1-yl)ethyl)amino)methylene) cyclohexane-1,3-dione], 4.82 to 5.52. As for `Cc1ccc(C2CC(=O)C(=CNCCN3CCNCC3)C(=O)C2)cc1` (stereo not shown) [Compound 237, 2-(((2-(piperazin-1-yl)ethyl)amino)methylene)-5-(p-tolyl) cyclohexane-1,3-dione], the pIC50 was 4.82 to 5.52.

As to `O=C1CC(c2ccccc2-c2c(Cl)cccc2Cl)CC(=O)C1=CNCCN1CCN(CCO)CC1` (stereo not shown) [Compound 406, 5-(2′,6′-dichloro-[1,1′-biphenyl]-2-yl)-2-(((2-(4-(2-ethoxyl)piperazin-1-yl)ethyl)amino)methylene) cyclohexane-1,3-dione], the negative-log IC50 (pIC50) was > 5.52. In the case of `O=C1CC(c2ccccc2Cl)CC(=O)C1=CO` (stereo not shown) [Compound 418, 2-(hydroxymethylene)-5-(2-chlorophenyl)cyclo-hexane-1,3-dione], the pIC50 is > 5.52.
